Paper PMC6797804, “Histone H3K23-specific acetylation by MORF is coupled to H3K14 acylation” (Nature Communications, 2019)

Key:
MORFN F287A complex = assay: HAT assay, MORFN F287A complex overexpressed in 293T cells; format: biochemical; details: H3K23ac peptide residues 1–29, 3H-Ac-CoA, pH 8, 30 min at 30 °C, CPM, n = 2
Procedure: Cells were harvested 48 h post-co-transfection and lysed in high-salt buffer (450 mM NaCl, 50 mM Tris-HCl (pH 8.0), 1% TX-100, 2 mM MgCl2, 0.1 mM ZnCl2, 2 mM EDTA, 10% glycerol) supplemented with protease inhibitor mixture. The NaCl concentration was reduced to 225 mM and the whole cell extract centrifuged at 14,000 rpm for 30 min. […] FLAG beads were next washed with the 225 mM NaCl buffer and eluted with 200 μg/ml of 3× FLAG peptide (Sigma).
In Fig. 4e and Supplementary Fig. 7, FLAG-tagged MORF proteins were overexpressed and prepared from transiently transfected 293T cells. Briefly, approximately 2 mg of total cell extract was incubated with 25 μl of M2-agarose beads (Sigma) overnight at 4 °C. […]
Acetyltransferase activity of the purified complexes was measured with 0.125 µCi of ^3H labeled Ac-CoA (2.1 Ci/mmol; PerkinElmer Life Sciences). […] The reactions were then captured on P81 filter paper, the free H3-labeled Ac-CoA was washed away and the paper was analyzed using Liquid Scintillation. […]
In Fig. 4e and Supplementary Fig. 7, purified MORF proteins were incubated at 37 °C for indicated times with peptides (1 μg) and 0.1 mM acetyl-CoA in HAT reaction buffer (50 mM Tris, pH 8.0, 0.1 mM EDTA, 10% glycerol, 1 mM PMSF, and 1 mM DTT) in a total volume of 50 μL. Reactions were quenched by flash-freezing in liquid nitrogen and then analyzed by SDS-PAGE and Western blot.

native MORF complex = assay: HAT assay, native MORF complex from K562 cells; format: biochemical, Homo sapiens; details: native WT MORF complex; H3 peptides residues 1–29, 3H-Ac-CoA, pH 8, 30 min at 30 °C; scintillation CPM; n = 2
Procedure: For purification of native complexes, after large-scale expansion of K562 clones, tandem affinity purifications (TAP) of MORF and MOZ complexes were performed on nuclear extracts as previously described[43]. Briefly, nuclear extracts were prepared following standard procedures and precleared with CL6B Sepharose beads.
(§1) The amounts of native (K562) or overexpressed (293T) MORF complexes were normalized empirically following SDS-PAGE and transfer onto nitrocellulose membrane. Anti-FLAG M2 conjugated to horseradish peroxydase (HRP; Sigma) was used at a 1:10,000 dilution and the immunoblots were visualized using a Western Lightning plus-ECL reagent (Perkin-Elmer). Anti-HA-HRP (clone 3F10, Roche) was used at a 1:2000 dilution.

MORFN complex = assay: HAT assay, WT MORFN complex overexpressed in 293T cells; format: biochemical; details: H3 peptides residues 1–29, 3H-Ac-CoA, pH 8, 30 min at 30 °C, CPM, n = 2
Description: as §1

Substance: H3K23ac: H3 peptide (residues 1–29) pre-acetylated at Lys23
- HAT activity of MORFN F287A complex, in words (MORFN F287A complex): substantially reduced residual enzymatic activity
- decrease in HAT activity relative to unmodified H3 peptide (native MORF complex): ~ 12 fold
- decrease in HAT activity relative to unmodified H3 peptide (MORFN complex; WT MORFN complex (293T)): ~ 7 fold
- HAT activity of MORFN complex, in words (MORFN complex; WT MORFN complex): substantially reduced residual enzymatic activity
